Results on 23 compounds are retold here after patent US3987189A, “Anti-inflammatory composition and method containing cyclic 2-furfural-acetals” (Henkel & Cie G.m.b.H., priority 1973, dated 1976).

Where two headings read alike, the source gives them in different places.

Data set [1] can be described thus: Orienting toxicity test, LD 50. As to conditions: in vivo. Here is the method:
In the following experiments listed below the cyclic 2-furfural-acetals to be used according to the invention were tested for their anti-inflammatoryproperties. First an orienting experiment was carried out to determine their toxicity, in order to be able to determine the test dosages for the further experiments.

In data set [2] the test system is carrageenin induced edema of the rats paw. Kind of data set: Rat's paw test with carrageenin induced edema (amputation method). The format is in vivo. As to conditions: 30 minutes before carrageenin, paws weighed 3 hours after carrageenin, read-out: Rat's paw test with carrageenin induced edema, checking (% inhibition). Here is the method:
As a determination of the suitability of the compounds for preventing the inflammation caused by sunburn, a variation of the rats paw test was used, namely the so-called amputation method was used, which is described by C. H. Winter in the Journal of Pharmacology and Experimental Therapeutics 141, p.369 (1963). In the experiments, Carrageenin is used as the substance causing inflammation.
While only the Carrageenin solution was administered to the control animals, the test animals were given the different test substances by injection or by administration per os in the amount given in Table I below, 30 minutes before its injection with the Carrageenin solution. The test animals were killed 3 hours after the injection of the carrageenin solution causing the inflammation, and the weight of the paws was determined. The inhibiting of the development of the edema of the rats paws after the subplantar injection of the compound checking inflammation was used as an index of the degree of activity and was expressed in % inhibition.
On the basis of general practice, the results of the rats paw test serve as a base for the evaluation of a compound as a sunburn control agent.
(The carrageenan paw model is a standard test of acute inflammation.)

Data set [3] in a line: UV-spectrum, absorption maxima. The format is physicochemical. From the text:
In addition, the absorption maxima of the test substances in the ultraviolet region are given in the following Table I. Since with some of the test substances the absorption maxima lie conveniently in the ultraviolet region producing erythema, which extends from 280 to 320 mμ these, besides their inflammation-preventing action as sunburn control substances, show themselves simultaneously as useful means for protection from the sun.

In general, LD50 refers to the dose at which mortality reaches 50%. The low end stands for a more toxic substance, the high end for a less toxic substance.

`O=[N+]([O-])c1ccc(C2OCCO2)o1` [Compound A, 2-(5'-Nitrofuryl-2')-1,3-dioxolane] showed an LD50 in data set [1] of 810 mg/kg. Further, the inhibition in vivo at 500 mg/kg in data set [2] (po, 500 mgm/kg p.o.) worked out at 16.2%. In data set [3], the “UV-spectrum λ-max” value was found to be 302 mμ and the “UV-spectrum logε at λ-max” value came to 4.02.

Regarding `O=[N+]([O-])c1ccc(C2OCCCCO2)o1` [Compound B, 2-(5'-nitrofuryl-2')-1,3-dioxepane], the LD50 in data set [1] came out at 1750 mg/kg. In data set [2] (po, 500 mgm/kg p.o.), the inhibition in vivo at 500 mg/kg amounted to 12.3%.

As to `CCCC1(C)COC(c2ccc([N+](=O)[O-])o2)OC1` (centres unmarked) [Compound C, 2-(5'-nitrofuryl-2')-5-methyl-5-propyl-1,3-dioxane], the LD50 in data set [1] is 300 mg/kg. The inhibition in vivo at 250 mg/kg in data set [2] (po, 250 mgm/kg p.o.) came out at 16.5%. Also, in data set [3], the “UV-spectrum λ-max” value is 302 mμ and the “UV-spectrum logε at λ-max” value is on record as 3.98.

For the compound `CC1(C)OC(c2ccc([N+](=O)[O-])o2)OC1(C)C` [Compound D, 2-(5'-nitrofuryl-2')-4,4,5,5-tetramethyl-1,3-dioxolane], the LD50 in data set [1] came out at 810 mg/kg. Also, the inhibition in vivo at 500 mg/kg in data set [2] (po, 500 mgm/kg p.o.) came out at 16.5%. In addition, in data set [3], the “UV-spectrum λ-max” value was determined as 303 mμ and the “UV-spectrum logε at λ-max” value is recorded as 4.01.

Compound `O=[N+]([O-])c1ccc(C2OC3CCCCC3O2)o1` (centres unmarked) [Compound E, 2-(5'-nitrofuryl-2')-4,5-tetramethylene-1,3-dioxolane] yielded an LD50 in data set [1] of 1000 mg/kg. Further, in data set [2] (po, 500 mgm/kg p.o.), the inhibition in vivo at 500 mg/kg stood at 17.7%. Also, in data set [3], the “UV-spectrum λ-max” value is 305 mμ and the “UV-spectrum logε at λ-max” value is reported as 4.01.

In data set [1], `CC(C)C1OC(c2ccco2)OCC1(C)C` (centres unmarked) [Compound F, 2-(furyl-2')-4-isopropyl-5,5-dimethyl-1,3-dioxane] returned an LD50 of 300 mg/kg. Further, the inhibition in vivo at 250 mg/kg in data set [2] (po, 250 mgm/kg p.o.) was 48.4%. Also, in data set [3], the “UV-spectrum λ-max” value was 300 mμ and the “UV-spectrum logε at λ-max” value worked out at 2.35.

As to `CC1OC(c2ccco2)OC1C` (centres unmarked) [Compound G, 2-(furyl-2')-4,5-dimethyl-1,3-dioxolane], the LD50 in data set [1] was 300 mg/kg. Further, in data set [2] (po, 250 mgm/kg p.o.), the inhibition in vivo at 250 mg/kg was 14.5%. Further, in data set [3], the “UV-spectrum λ-max” value amounted to 300 mμ and the “UV-spectrum logε at λ-max” value was found to be 2.13.

`Cc1ccc(C2OCC(C)(C)C(C(C)C)O2)o1` (centres unmarked) [Compound H, 2-(5'-methylfuryl-2')-4-isopropyl-5,5-dimethyl-1,3-dioxane] registered an LD50 in data set [1] of 1000 mg/kg. For the same compound, the inhibition in vivo at 1000 mg/kg in data set [2] (po, 1000 mgm/kg p.o.) stood at 50%. In data set [3], the “UV-spectrum λ-max” value came out at 300 mμ and the “UV-spectrum logε at λ-max” value is listed as 2.08.

`Cc1ccc(C2OC(C)C(C)O2)o1` (centres unmarked) [Compound J, 2-(5'-methylfuryl-2')-4,5-dimethyl-1,3-dioxolane] came in with an LD50 in data set [1] of 1000 mg/kg. Further, the inhibition in vivo at 1000 mg/kg in data set [2] (po, 1000 mgm/kg p.o.) was found to be 48.4%. In addition, in data set [3], the “UV-spectrum λ-max” value came out at 300 mμ and the “UV-spectrum logε at λ-max” value was found to be 1.96.

Compound `CC1OC(c2ccc([N+](=O)[O-])o2)OC(C)C1C` (centres unmarked) [Compound K, 2-(5'-Nitrofuryl-2')-4,5,6-trimethyl-1,3-dioxane] displayed an LD50 in data set [1] of 690 mg/kg. Also, the inhibition in vivo at 250 mg/kg in data set [2] (po, 250 mgm/kg p.o.) was found to be 30.8%. In data set [3], the “UV-spectrum λ-max” value is reported as 303 mμ and the “UV-spectrum logε at λ-max” value worked out at 3.76.

With `CC1CC(C)(C)OC(c2ccc([N+](=O)[O-])o2)O1` (centres unmarked) [Compound L, 2-(5'-nitrofuryl-2')-4,4,6-trimethyl-1,3-dioxane], the LD50 in data set [1] worked out at 1130 mg/kg. In addition, the inhibition in vivo at 500 mg/kg in data set [2] (po, 500 mgm/kg p.o.) worked out at 21.9%. In data set [3], the “UV-spectrum λ-max” value came to 304 mμ and the “UV-spectrum logε at λ-max” value was 4.01.

As for `CCCCCCCCCCCCC1COC(c2ccc([N+](=O)[O-])o2)O1` (centres unmarked) [Compound M, 2-(5'-nitrofuryl-2')-4-dodecyl-1,3-dioxolane], the LD50 in data set [1] came to 1000 mg/kg. In addition, the inhibition in vivo at 1000 mg/kg in data set [2] (ip, 1000 mgm/kg i.p.) was 18.3%.

`CCCCCCCCCCCCCCC1COC(c2ccc([N+](=O)[O-])o2)O1` (centres unmarked) [Compound N, 2-(5'-nitrofuryl-2')-4-tetradecyl-1,3-dioxolane] had an LD50 in data set [1] of 1000 mg/kg. Further, the inhibition in vivo at 1000 mg/kg in data set [2] (ip, 1000 mgm/kg i.p.) came to 10.5%.

In data set [1], `CCCCCCCCCCCCCCCCC1COC(c2ccc([N+](=O)[O-])o2)O1` (centres unmarked) [Compound O, 2-(5'-nitrofuryl-2')-4-hexadecyl-1,3-dioxolane] had an LD50 of 2500 mg/kg. Further, the inhibition in vivo at 250 mg/kg in data set [2] (ip, 250 mgm/kg i.p.) worked out at 29.6%.

In the case of `CC(C)C1OC(c2ccc([N+](=O)[O-])o2)OCC1(C)C` (centres unmarked) [Compound Q, 2-(5'-nitrofuryl-2')-4-isopropyl-5,5-dimethyl-1,3-dioxane], in data set [1], the LD50 came to 1750 mg/kg. Also, the inhibition in vivo at 750 mg/kg in data set [2] (po, 750 mgm/kg p.o.) came to 34.1%. Also, in data set [3], the “UV-spectrum λ-max” value amounted to 301 mμ and the “UV-spectrum logε at λ-max” value was found to be 4.07.

Turning to `CC1COC(c2ccc([N+](=O)[O-])o2)O1` (centres unmarked) [Compound R, 2-(5'-nitrofuryl-2')-4-methyl-1,3-dioxolane], in data set [1], the LD50 came out at 750 mg/kg. In addition, the inhibition in vivo at 50 mg/kg in data set [2] (ip, 50 mgm/kg i.p.) came to 36.6%. Moreover, in data set [3], the “UV-spectrum λ-max” value came to 303 mμ and the “UV-spectrum logε at λ-max” value was determined as 3.84.

In data set [1], `CCCCC1COC(c2ccc([N+](=O)[O-])o2)O1` (centres unmarked) [Compound S, 2-(5'-nitrofuryl-2')-4-n-butyl-1,3-dioxolane] returned an LD50 of 810 mg/kg. Further, the inhibition in vivo at 500 mg/kg in data set [2] (ip, 500 mgm/kg i.p.) was found to be 10.6%.

On to `CCCCCCC1COC(c2ccc([N+](=O)[O-])o2)O1` (centres unmarked) [Compound T, 2-(5'-nitrofuryl-2')-4-n-hexyl-1,3-dioxolane], for which, in data set [1], the LD50 worked out at 1000 mg/kg. Besides, the inhibition in vivo at 1000 mg/kg in data set [2] (po, 1000 mgm/kg p.o.) was 12.8%.

In the case of `CCCCCCCCC1COC(c2ccc([N+](=O)[O-])o2)O1` (centres unmarked) [Compound U, 2-(5'-nitrofuryl-2')-4-n-octyl-1,3-dioxolane], the LD50 in data set [1] is 5000 mg/kg. Also, the inhibition in vivo at 250 mg/kg in data set [2] (ip, 250 mgm/kg i.p.) was found to be 17%.

Turning to `CCCCCCCCCCC1COC(c2ccc([N+](=O)[O-])o2)O1` (centres unmarked) [Compound V, 2-(5'-nitrofuryl-2')-4-n-decyl-1,3-dioxolane], the LD50 in data set [1] worked out at 1000 mg/kg. For the same compound, the inhibition in vivo at 1000 mg/kg in data set [2] (po, 1000 mgm/kg p.o.) is 18.3%.

For `O=[N+]([O-])c1ccc(C2OCCCO2)o1` [Compound W, 2-(5'-nitrofuryl-2')-1,3-dioxane], the LD50 in data set [1] stood at 750 mg/kg. Also, the inhibition in vivo at 500 mg/kg in data set [2] (po, 500 mgm/kg p.o.) was determined as 16.9%. Besides, in data set [3], the “UV-spectrum λ-max” value was found to be 303 mμ and the “UV-spectrum logε at λ-max” value was 3.79.

For the compound `CC1CCOC(c2ccc([N+](=O)[O-])o2)O1` (centres unmarked) [Compound X, 2-(5'-nitrofuryl-2')-4-methyl-1,3-dioxane], the LD50 in data set [1] turned out to be 750 mg/kg. Also, the inhibition in vivo at 500 mg/kg in data set [2] (po, 500 mgm/kg p.o.) was 12.1%. Besides, in data set [3], the “UV-spectrum λ-max” value came out at 303 mμ and the “UV-spectrum logε at λ-max” value is given as 3.87.

For the compound `c1coc(C2OC3CCCCC3O2)c1` (centres unmarked) [Compound Y, 2-(Furyl-2')-4,5-tetramethylene-1,3-dioxolane], the LD50 in data set [1] was determined as 300 mg/kg. Further, the inhibition in vivo at 250 mg/kg in data set [2] (po, 250 mgm/kg p.o.) is 32.3%.
